Where two headings read alike, the source gives them in different places.
How the values were obtained:
[1] = target: recombinant RSV complex (Human respiratory syncytial virus A, UniProt P28887); test: RSV Polymerase Inhibition Assay; format: biochemical
Procedure: Standard RSV polymerase assays were conducted in the presence of 10 nM recombinant RSV complex in a reaction buffer containing Tris-HCl pH7.5, 6 mM MgCl2, and other additives and substrates including RNA oligonucleotides and radionucleotides. Standard reactions were incubated in 96-well plate format for 2 h at 30° C., in the presence of increasing concentration of inhibitor. The reaction was stopped with 90 μL of 0.1M EDTA, and the reaction product was transferred to a “reading” 96-well plate. After washing of the plate, radiolabeled RNA products were detected according to standard procedures with a Trilux Topcount scintillation counter.

[2] = Cytotoxicity Determination (CCK-8, without addition of virus); format: cell-based; conditions: human, 50% cytotoxicity concentration (CC50)
Procedure: (§1) CPE reduction assays are performed as described by Sidwell and Huffman et al., Appl. Microbiol. (1971) 22(5):797-801 with slight modifications. HEp-2 cells (ATCC #, CCL-23) are seeded at a density of 1,500 cells/30 μl/well into the 384-well cell plate(s) (Corning #3701) one day prior to the assay. Compounds are added into 384-well cell plates by Labcyte POD 810 Plate Assembler system. Each of the test compounds is provided to duplicate wells of a 384-well cell plate at final concentrations starting from 100 μM or 1 μM using 1/3 stepwise dilutions for 9 points. Quick-thaw Respiratory Syncytial Virus (RSV) long strain (ATCC #VR-26) stock in a 37° C. water bath. Place on ice until ready to use. Viruses are diluted to the concentration of 100 TCID50/30 μL with medium and 30 μl diluted RSV are added into related wells of 384-well cell plates. For each plate, sixteen wells are set aside as uninfected, untreated cell controls (CC), and nine wells per test plate receive virus only as a control for virus replication (VC). The final DMSO concentration of all wells is 1%. Place the plates at 37° C., 5% CO2 for 5 days.
In order to determine the compound cytotoxicity, in parallel, each of the compounds is applied to duplicate wells in a 384-well cell plate at serial final concentrations starting from 100 μM using 1/2 stepwise dilutions for 7 points without addition of virus. Incubate the cells at 37° C., 5% CO2 for 5 days. Add 6 μL CCK-8 into each well and incubate in a CO2 incubator at 37° C. for 3-4 hours.

[3] = tested on: Respiratory Syncytial Virus (RSV) long strain; test: microbe, parasite or virus in culture; format: cell-based; conditions: human respiratory syncytial virus, Tables A and B list compounds by EC50 band
Procedure: as §1
After 5 days incubation, observe the CPE of cells in all wells. […] Six μl of cell counting kit-8 reagent (CCK-8, Dojindo Molecular Technologies Inc., CK04-20) are added to each well, which allows colorimetric assays to determine the number of viable cells through the dehydrogenase activity detection. After 3-4 hour incubation, the absorbance of each well is measured with a spectrophotometric plate reader at 450 nm wavelength, using a 630 nm filter as background according to manufacturer's instruction.

[4] = HEp-2, 120 h, read-out: 50% effective concentration (EC50), HEp-2 cells infected with RSV long strain, 5 days, CCK-8 readout
[5] = 120 h, read-out: 50% effective concentration (EC50), HEp-2 cells infected with RSV long strain, 5 days, CCK-8 readout

Chain of recombinant RSV complex (P28887 whole entry): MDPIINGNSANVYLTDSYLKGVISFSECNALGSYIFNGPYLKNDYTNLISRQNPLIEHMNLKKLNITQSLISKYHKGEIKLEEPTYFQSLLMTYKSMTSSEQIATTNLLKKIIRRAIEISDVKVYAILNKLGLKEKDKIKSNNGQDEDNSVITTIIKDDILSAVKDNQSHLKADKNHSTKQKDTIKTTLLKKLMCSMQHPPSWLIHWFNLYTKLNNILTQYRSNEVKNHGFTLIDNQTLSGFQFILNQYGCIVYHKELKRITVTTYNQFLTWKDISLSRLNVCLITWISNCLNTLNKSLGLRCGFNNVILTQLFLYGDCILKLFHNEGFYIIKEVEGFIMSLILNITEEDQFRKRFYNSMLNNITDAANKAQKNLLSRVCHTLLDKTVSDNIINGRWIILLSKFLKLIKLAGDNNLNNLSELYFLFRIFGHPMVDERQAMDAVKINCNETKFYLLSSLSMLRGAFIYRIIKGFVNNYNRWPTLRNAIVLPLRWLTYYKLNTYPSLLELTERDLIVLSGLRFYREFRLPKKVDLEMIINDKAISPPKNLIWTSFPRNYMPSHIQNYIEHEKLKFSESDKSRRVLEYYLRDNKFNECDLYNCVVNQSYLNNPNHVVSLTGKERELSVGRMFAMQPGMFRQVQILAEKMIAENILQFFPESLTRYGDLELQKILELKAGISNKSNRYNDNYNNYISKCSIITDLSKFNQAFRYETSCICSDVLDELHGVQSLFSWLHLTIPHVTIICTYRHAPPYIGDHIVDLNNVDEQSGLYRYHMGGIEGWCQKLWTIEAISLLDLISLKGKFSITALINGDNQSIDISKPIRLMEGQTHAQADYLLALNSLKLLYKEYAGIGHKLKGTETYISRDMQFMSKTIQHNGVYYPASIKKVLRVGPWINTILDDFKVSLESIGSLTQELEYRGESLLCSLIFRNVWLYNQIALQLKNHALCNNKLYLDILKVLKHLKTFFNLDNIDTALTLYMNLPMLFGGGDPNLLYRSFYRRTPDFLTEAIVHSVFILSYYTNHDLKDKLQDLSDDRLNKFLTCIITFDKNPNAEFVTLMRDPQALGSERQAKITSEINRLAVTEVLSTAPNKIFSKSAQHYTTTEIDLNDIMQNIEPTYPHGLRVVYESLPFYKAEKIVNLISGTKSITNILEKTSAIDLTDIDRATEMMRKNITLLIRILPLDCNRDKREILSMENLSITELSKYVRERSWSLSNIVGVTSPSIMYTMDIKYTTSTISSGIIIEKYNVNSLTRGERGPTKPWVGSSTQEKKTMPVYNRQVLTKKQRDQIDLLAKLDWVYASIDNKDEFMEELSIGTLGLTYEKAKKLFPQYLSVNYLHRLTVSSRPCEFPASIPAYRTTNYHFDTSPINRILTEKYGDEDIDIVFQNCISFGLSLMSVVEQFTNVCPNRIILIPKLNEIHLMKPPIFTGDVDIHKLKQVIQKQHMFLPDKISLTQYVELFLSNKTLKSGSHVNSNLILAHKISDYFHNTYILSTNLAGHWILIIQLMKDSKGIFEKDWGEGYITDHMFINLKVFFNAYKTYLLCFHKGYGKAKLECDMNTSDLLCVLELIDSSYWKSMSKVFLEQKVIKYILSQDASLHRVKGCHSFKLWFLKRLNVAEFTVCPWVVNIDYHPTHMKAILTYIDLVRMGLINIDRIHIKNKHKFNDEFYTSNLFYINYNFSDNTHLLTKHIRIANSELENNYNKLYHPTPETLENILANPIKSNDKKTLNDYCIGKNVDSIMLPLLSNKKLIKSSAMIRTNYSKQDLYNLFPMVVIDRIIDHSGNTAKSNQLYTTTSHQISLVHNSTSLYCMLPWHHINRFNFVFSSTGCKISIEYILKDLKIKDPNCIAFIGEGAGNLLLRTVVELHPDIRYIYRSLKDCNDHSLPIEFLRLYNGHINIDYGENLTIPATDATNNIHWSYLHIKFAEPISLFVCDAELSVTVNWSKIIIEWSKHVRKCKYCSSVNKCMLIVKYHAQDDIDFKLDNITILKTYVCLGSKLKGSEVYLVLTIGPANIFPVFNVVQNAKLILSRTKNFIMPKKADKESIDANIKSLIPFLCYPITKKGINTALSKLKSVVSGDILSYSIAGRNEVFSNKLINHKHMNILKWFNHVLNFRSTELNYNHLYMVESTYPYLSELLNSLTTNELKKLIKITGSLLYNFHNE
Chain of recombinant RSV complex (P03421 whole entry, further chain): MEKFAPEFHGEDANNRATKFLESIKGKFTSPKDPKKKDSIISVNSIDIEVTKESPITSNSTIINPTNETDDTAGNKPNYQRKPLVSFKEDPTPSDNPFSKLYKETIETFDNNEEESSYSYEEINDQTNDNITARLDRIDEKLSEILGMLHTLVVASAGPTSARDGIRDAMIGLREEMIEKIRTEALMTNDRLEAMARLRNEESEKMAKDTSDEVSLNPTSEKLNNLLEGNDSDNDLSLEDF

SMILES | IC50 [1] [µM] | CC50 at 5 days [2] [µM] | EC50 [3, 4] [µM] | EC50 [3, 5] [µM]
Cc1nc(C(=O)NCC(O)(c2cc(C(C)(C)N)cc(-c3ccc(F)cc3)n2)C(F)(F)F)co1 (stereo not drawn) [Compound 607] | < 10 | 10 to 100 | 1 to 50 | 
COc1cc(C(=O)NCC(=O)c2cc3c(c(-c4ccc(F)c(Cl)c4)n2)OCC3)ccc1OCCF [Compound 135] | < 100 | > 100 | < 1 | 
COc1cc(C(=O)NCC(O)c2cccc(-c3csc4c(F)cccc34)n2)ccc1OCCO (stereo not drawn) [Compound 165] | < 10 | 10 to 100 | 1 to 50 | 
COc1cc(C(=O)NCC(=O)c2cc3c(C)coc3c(-c3ccc(F)c(Cl)c3)n2)ccc1OC1CC1 [Compound 474] | < 1 | > 100 | < 1 | 
COc1cc(C(=O)NCC(O)(c2cc3c(c(-c4ccc(F)nc4)n2)OCC3(C)N)C(F)(F)F)ccc1OCCO (stereo not drawn) [Compound 492] | < 10 | > 100 | 1 to 50 | 
COc1cc(C(=O)NCC(C)(O)c2cc3cc[nH]c3c(-c3ccc(F)c(Cl)c3)n2)ccc1OCCF (stereo not drawn) [Compound 290] | < 10 | 10 to 100 |  | 1 to 50
COc1cc(C(=O)NCC(O)(CO)c2ccc(OC)c(-c3ccc(F)c(Cl)c3)n2)ccc1OC1CC1(F)F (stereo not drawn) [Compound 469] | < 1 | 10 to 100 | < 1 | 
COc1cc(C(=O)NCC(O)(c2cc(C(N)=O)cc(-c3ccc(F)c(Cl)c3)n2)C(F)(F)F)ccc1OC1CC1 (stereo not drawn) [Compound 464] | < 1 | 10 to 100 | < 1 | 
COc1cc(C(=O)NCC(O)(c2ccc(OC)c(-c3ccc(F)c(Cl)c3)n2)C2CC2)ccc1OC(F)F (stereo not drawn) [Compound 432] | < 1 | 10 to 100 | 1 to 50 | 
COc1cc(C(=O)NCC(O)(c2cc3c(c(-c4ccc(F)c(Cl)c4)n2)OCC3(C)N[S+]([O-])C(C)(C)C)C(F)(F)F)ccc1OC1CC1 (stereo not drawn) [Compound 482] | < 1 | 10 to 100 | < 1 | 
Cc1ncc(C(=O)NCC(O)(c2cc(C(C)(C)N)cc(-c3ccc(F)cc3)n2)C(F)(F)F)o1 (stereo not drawn) [Compound 608] | < 10 | > 100 | 1 to 50 | 
COc1cc(C(=O)NCC(F)(CF)c2ccc(OC)c(-c3ccc(F)c(Cl)c3)n2)ccc1OCCO (stereo not drawn) [Compound 435] | < 1 | 10 to 100 | < 1 | 
COc1cc(C(=O)NCC(O)(c2ccc(OC)c(-c3ccc(F)c(Cl)c3)n2)C(F)(F)F)ccc1OCC1(O)CC1 (stereo not drawn) [Compound 270] | < 1 | 10 to 100 |  | < 1
COc1cc(C(=O)NCC(C)(O)c2ccc(OC)c(-c3ccc(F)c(Br)c3)n2)ccc1OCCO (stereo not drawn) [Compound 167] | < 1 | 10 to 100 | < 1 | 
COc1ccc(C(=O)NCC(C)(O)c2ccc(OC)c(-c3ccc(F)c(Cl)c3)n2)cc1 (stereo not drawn) [Compound 174] | < 10 | 10 to 100 | 1 to 50 | 
CC1(C)COc2c1cc(C(O)(CNC(=O)c1cc(O)c3ncccc3c1)C(F)(F)F)nc2-c1ccc(F)c(Cl)c1 (stereo not drawn) [Compound 207] | < 1 | 10 to 100 | 1 to 50 | 
COc1cc(C(=O)NCC(O)(c2cc(C(C)(C)N)cc(-c3ccc(F)cc3)n2)C(F)(F)F)ccc1-c1ccncc1 (stereo not drawn) [Compound 599] | < 1 | 10 to 100 | < 1 | 
COc1cc(C(=O)NCC(C)(O)c2cc3c(c(-c4ccc(F)c(Cl)c4)n2)NCC3)ccc1OCCF (single isomer, unassigned) [Compound 294] | < 10 | > 100 | < 1 | 
COc1cc(C(=O)NCC(O)(c2ccc(OC)c(-c3ccc(F)c(Cl)c3)n2)C(F)(F)F)ccc1OCC(C)(F)F (stereo not drawn) [Compound 234] | < 1 | > 100 | < 1 | 

From US11021444B2, “Antiviral compounds” (priority 2013, dated 2021)
